In the assay the target is PIK3CA (human) (UniProt P42336). Nature of the assay: Assessment of PIK3CA Kinase Activity.
PIK3CA (human), sequence (P42336 whole entry, looked up): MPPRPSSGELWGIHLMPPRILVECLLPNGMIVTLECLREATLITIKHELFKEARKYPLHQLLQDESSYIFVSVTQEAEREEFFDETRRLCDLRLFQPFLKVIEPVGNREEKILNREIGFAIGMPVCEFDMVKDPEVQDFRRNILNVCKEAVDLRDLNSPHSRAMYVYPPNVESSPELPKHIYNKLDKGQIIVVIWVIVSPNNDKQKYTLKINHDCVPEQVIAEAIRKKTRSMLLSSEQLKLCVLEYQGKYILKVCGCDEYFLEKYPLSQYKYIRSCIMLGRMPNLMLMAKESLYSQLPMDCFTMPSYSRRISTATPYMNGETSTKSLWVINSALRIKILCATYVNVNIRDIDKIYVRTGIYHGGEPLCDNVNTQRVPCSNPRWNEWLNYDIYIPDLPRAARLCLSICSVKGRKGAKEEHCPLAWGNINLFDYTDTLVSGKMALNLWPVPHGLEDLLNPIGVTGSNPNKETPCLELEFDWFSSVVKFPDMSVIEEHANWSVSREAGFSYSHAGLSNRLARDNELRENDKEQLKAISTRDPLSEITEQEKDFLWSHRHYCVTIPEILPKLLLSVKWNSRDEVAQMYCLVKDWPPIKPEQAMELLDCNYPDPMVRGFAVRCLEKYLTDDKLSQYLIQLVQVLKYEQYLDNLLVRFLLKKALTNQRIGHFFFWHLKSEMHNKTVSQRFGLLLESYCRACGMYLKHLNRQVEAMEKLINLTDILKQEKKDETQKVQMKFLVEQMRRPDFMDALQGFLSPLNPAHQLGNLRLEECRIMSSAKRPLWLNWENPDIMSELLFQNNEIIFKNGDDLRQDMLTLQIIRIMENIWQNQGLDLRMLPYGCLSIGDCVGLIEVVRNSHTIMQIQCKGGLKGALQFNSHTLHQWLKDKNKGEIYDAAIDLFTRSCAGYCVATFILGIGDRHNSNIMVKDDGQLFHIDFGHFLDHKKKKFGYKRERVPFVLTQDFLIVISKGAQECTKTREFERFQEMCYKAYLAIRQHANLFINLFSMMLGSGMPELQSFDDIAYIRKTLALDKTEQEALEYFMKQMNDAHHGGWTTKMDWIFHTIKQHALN

What is called IC50 is the midpoint of a concentration-inhibition curve. A high value points to a need for much substance. Turning to `CC(C)n1nc(N)nc1-c1nc2c(s1)CCOc1ccc(F)cc1-2`, the IC50 was below 1000 nM. For `COc1ncccc1-c1ccc2c(n1)-c1sc(-c3ncnn3-c3ccc(F)cc3F)cc1CCO2` the value was below 1000 nM; for `C[C@@H]1CCCN(C(=O)c2nc3c(s2)CCOc2cc(-c4cn[nH]c4)ccc2-3)C1`, below 1000 nM. `Fc1ccc(-n2ncnc2-c2cc3c(s2)-c2nc(NCCc4ccccc4)ccc2OCC3)c(F)c1` showed an IC50 below 1000 nM. Turning to `CC(C)n1ncnc1-c1nc2c(s1)CCOc1ccc(C3CN(Cc4ccccc4Cl)C3)cc1-2`, the half-maximal inhibitory concentration (IC50) was below 1000 nM. Regarding `COCCn1cccc(-c2ccc3c(c2)-c2nc(-c4ncnn4C(C)C)sc2CCO3)c1=O`, the IC50 was below 1000 nM. To `O=C(c1nc2c(s1)CCOc1cc(-c3cn[nH]c3)ccc1-2)N1CCN(C(=O)C(F)(F)F)CC1` belongs below 1000 nM; to `Cc1c[nH]c(=O)c(-c2ccc3c(c2)-c2nc(-c4ncnn4C(C)C)sc2CCO3)c1`, below 1000 nM; to `CC(C)n1ncnc1-c1nc2c(s1)CCOc1ccc(C3CCCC3)cc1-2`, below 1000 nM. To `Oc1ccc(-c2ccc3c(n2)-c2sc(-c4ncnn4-c4ccc(F)cc4F)cc2CCO3)cn1` belongs below 1000 nM; to `CNC(=O)Cn1ccnc1-c1nc2c(s1)CCOc1cc(-c3cnn(CC(C)(C)O)c3)ccc1-2`, below 1000 nM. For `O=C(c1nc2c(s1)CCOc1cc(-c3cn[nH]c3)ccc1-2)N1CCCCCCC1` the value was below 1000 nM; for `O=C(NCCO)c1ccc2c(c1)OCCc1sc(-c3ncnn3CC(F)(F)F)nc1-2`, below 1000 nM; for `O=C(c1nc2c(s1)CCOc1cc(-c3cn[nH]c3)ccc1-2)N1CCC[C@@H](O)C1`, below 1000 nM. In the case of `OCC(O)CNc1ccc2c(n1)-c1sc(-c3ncnn3-c3ccc(F)cc3F)cc1CCO2` (stereo not drawn), the IC50 is below 1000 nM. For `CC(C)n1ncnc1-c1nc2c(s1)CCOc1ccc(C(=O)NCCO)cc1-2`, the IC50 is below 1000 nM. Turning to `Fc1ccc(-n2ncnc2-c2cc3c(s2)-c2nc(NCCN4CCOCC4)ccc2OCC3)c(F)c1`, the IC50 was below 1000 nM. Take `O=C(c1nc2c(s1)CCOc1cc(-c3cn[nH]c3)ccc1-2)N1CCN(c2ccccn2)CC1`: the concentration for half-maximal inhibition (IC50) is below 1000 nM. To `O=C(c1nc2c(s1)CCOc1cc(-c3cn[nH]c3)ccc1-2)N1CCN(C[C@H]2CCCO2)CC1` belongs below 1000 nM. To `COc1cc(C)c(-c2ccc3c(n2)-c2sc(-c4ncnn4-c4ccc(F)cc4F)cc2CCO3)cn1` belongs below 1000 nM; to `Fc1ccc(-n2ncnc2-c2cc3c(s2)-c2nc(N4CCCNCC4)ccc2OCC3)c(F)c1`, below 1000 nM. For the molecule `O=C(c1nc2c(s1)CCOc1cc(-c3cn[nH]c3)ccc1-2)N1CCN(CC2CC2)CC1`, the IC50 was below 1000 nM.

Turning to `Cc1nc(-c2nc3c(s2)CCOc2cc(CNS(C)(=O)=O)ccc2-3)n(C(C)C)n1`, the IC50 was below 1000 nM. On to `CCNC(=O)NCc1ccc2c(c1)OCCc1sc(-c3nc(C)nn3C(C)C)nc1-2`, for which the IC50 was below 1000 nM. For `CNC(=O)c1ccc2c(c1)OCCc1cc(C(=O)N(C)c3cc(C(=O)N4CCNCC4)ccc3Cl)sc1-2` the value was below 1000 nM. As to `O=C(O)c1cccc(-c2ccc3c(c2)OCCc2sc(-c4ncnn4CC(F)(F)F)nc2-3)c1`, the IC50 is below 1000 nM. For `CC1CN(C(=O)c2nc3c(s2)CCOc2cc(-c4cn[nH]c4)ccc2-3)CCN1` (stereo not drawn), the IC50 was below 1000 nM. For `CC(C)n1ncnc1-c1nc2c(s1)CCOc1ccc(C3CN(CCO)C3)cc1-2` the value was below 1000 nM. In turn, `CC(C)n1ncnc1-c1nc2c(s1)CCOc1cc(C3CN(CCS(C)(=O)=O)C3)ccc1-2` registered a half-maximal inhibitory concentration (IC50) below 1000 nM. `CC(C)n1c(-c2nc3c(s2)CCOc2cc(-c4cnn(CC5(C)COC5)c4)ccc2-3)n[nH]c1=O`: the IC50 was below 1000 nM. To `CC(C)(C)C1CCN(C(=O)c2nc3c(s2)CCOc2cc(-c4cn[nH]c4)ccc2-3)CC1` belongs below 1000 nM; to `CC(C)(O)CCc1ccc2c(n1)-c1sc(-c3ncnn3-c3ccc(F)cc3F)cc1CCO2`, below 1000 nM.

In the case of `CN1CCN(c2ccc3c(n2)-c2sc(-c4ncnn4-c4ccc(F)cc4F)cc2CCO3)CC1`, the IC50 was below 1000 nM. `COCC(O)Cn1cc(-c2ccc3c(c2)OCCc2sc(-c4nc(C)nn4C(C)C)nc2-3)cn1` (stereo not drawn): the IC50 is below 1000 nM. For the molecule `CC(C)n1ncnc1-c1nc2c(s1)CCOc1cc(C3CN(S(=O)(=O)C(C)C)C3)ccc1-2`, the IC50 is below 1000 nM. To `COCCN1CC(c2ccc3c(c2)OCCc2sc(-c4nc(C)nn4C(C)C)nc2-3)C1` belongs below 1000 nM. For `CN1CCN(C(=O)c2nc3c(s2)CCOc2cc(-c4cn[nH]c4)ccc2-3)CC1`, the IC50 was below 1000 nM. Molecule `O=C(c1nc2c(s1)CCOc1cc(-c3cn[nH]c3)ccc1-2)N1CCN(c2cccnc2)CC1` had an IC50 below 1000 nM. Take `CC(=O)N(C)[C@@H]1CCN(C(=O)c2nc3c(s2)CCOc2cc(-c4cn[nH]c4)ccc2-3)C1`: the IC50 is below 1000 nM. `COc1ccccc1C1CCN(C(=O)c2nc3c(s2)CCOc2cc(-c4cn[nH]c4)ccc2-3)CC1` displayed an IC50 below 1000 nM. As to `CC(=O)N1CCC(N(CCO)C(=O)c2nc3c(s2)CCOc2cc(-c4cnn(CC(C)(C)O)c4)ccc2-3)CC1`, the IC50 is below 1000 nM. On to `Fc1ccc(-n2ncnc2-c2cc3c(s2)-c2nc(NC4CNC4)ccc2OCC3)c(F)c1`, for which the IC50 was below 1000 nM. Take `O=C(c1nc2c(s1)CCOc1cc(-c3cn[nH]c3)ccc1-2)N1CCNCC1`: the IC50 is below 1000 nM.

For the molecule `COc1ncccc1-c1ccc2c(c1)-c1nc(-c3ncnn3C(C)C)sc1CCO2`, the IC50 was below 1000 nM. For `O=C1CN(c2ccc3c(n2)-c2sc(-c4ncnn4-c4ccc(F)cc4F)cc2CCO3)CCN1` the value was below 1000 nM; for `CC(C)n1ncnc1-c1nc2c(s1)CCOc1ccc(-c3ccc[nH]c3=O)cc1-2`, below 1000 nM. The molecule `COc1ccncc1-c1ccc2c(c1)-c1nc(-c3ncnn3C(C)C)sc1CCO2` registered an IC50 below 1000 nM.

In turn, `CC(=O)N1CC(n2c(Cl)cnc2-c2nc3c(s2)CCOc2cc(-c4cnn(CC(C)(C)O)c4)ccc2-3)C1` returned an IC50 below 1000 nM. For `Cc1nc(-c2nc3c(s2)CCOc2cc(C4CN(C[C@H](O)CO)C4)ccc2-3)n(C(C)C)n1`, the concentration for half-maximal inhibition (IC50) was below 1000 nM. Regarding `CC(C)n1ncnc1-c1nc2c(s1)CCOc1cc(C3CN(S(=O)(=O)CCO)C3)ccc1-2`, the IC50 was below 1000 nM. On to `CC(C)n1ncnc1-c1nc2c(s1)CCOc1cc(-c3ccc(=O)[nH]c3)ccc1-2`, for which the IC50 was below 1000 nM. As to `CC(C)n1ncnc1-c1nc2c(s1)CCOc1cc(C3CCN(CCO)CC3)ccc1-2`, the half-inhibitory concentration (IC50) was below 1000 nM.

In turn, `CNC(=O)Cn1cccc(-c2ccc3c(c2)-c2nc(-c4ncnn4C(C)C)sc2CCO3)c1=O` registered a half-inhibitory concentration (IC50) below 1000 nM. Molecule `CCN(CC)[C@@H]1CCN(C(=O)c2nc3c(s2)CCOc2cc(-c4cn[nH]c4)ccc2-3)C1` showed an IC50 below 1000 nM.

The molecule `CN1CCC(n2ncnc2-c2nc3c(s2)CCOc2cc(-c4cnn(CCO)c4)ccc2-3)CC1` gave an IC50 below 1000 nM. The molecule `CNC1CCN(C(=O)c2nc3c(s2)CCOc2cc(-c4cn[nH]c4)ccc2-3)C1` (stereo not drawn) came in with an IC50 below 1000 nM. For `CC(C)(O)Cn1cc(-c2ccc3c(c2)OCCc2sc(N4C(=O)OCC4(C)C)nc2-3)cn1` the value was below 1000 nM. `CC(C)n1ncnc1-c1nc2c(s1)CCOc1ccc(-c3cccn(CC(=O)O)c3=O)cc1-2` returned an IC50 below 1000 nM. To `CC(C)n1ncnc1-c1nc2c(s1)CCOc1cc(C3CN(S(=O)(=O)CCN(C)C)C3)ccc1-2` belongs below 1000 nM; to `CCOc1ncccc1-c1ccc2c(c1)-c1nc(-c3ncnn3C(C)C)sc1CCO2`, below 1000 nM; to `Cc1cc(-c2ccc3c(n2)-c2sc(-c4ncnn4-c4ccc(F)cc4F)cc2CCO3)cnc1N1CCOCC1`, below 1000 nM. `COCCNc1ccc2c(n1)-c1sc(-c3ncnn3-c3ccc(F)cc3F)cc1CCO2` showed an IC50 below 1000 nM. Molecule `CNC(=O)c1ccc2c(c1)OCCc1cc(C(=O)N(C)c3cc(C(=O)N(C)CCO)ccc3Cl)sc1-2` had an IC50 below 1000 nM. To `CC(C)n1ncnc1-c1nc2c(s1)CCOc1cc(-c3cccnc3F)ccc1-2` belongs below 1000 nM. For `CC(C)n1ncnc1-c1nc2c(s1)CCOc1ccc(-c3cccnc3C(F)(F)F)cc1-2`, the IC50 was below 1000 nM. To `Cc1cnc(F)c(-c2ccc3c(c2)-c2nc(-c4ncnn4C(C)C)sc2CCO3)c1` belongs below 1000 nM. Regarding `FC(F)(F)Cn1ncnc1-c1nc2c(s1)CCOc1cc(-c3ccc(NCCN4CCOCC4)nc3)ccc1-2`, the concentration for half-maximal inhibition (IC50) is below 1000 nM. In turn, `Cc1nc(-c2nc3c(s2)CCOc2cc(-c4ccccc4S(N)(=O)=O)ccc2-3)n(C(C)C)n1` showed an IC50 below 1000 nM. Turning to `Cc1nc(-c2nc3c(s2)CCOc2cc(C4CN(CCS(C)(=O)=O)C4)ccc2-3)n(C(C)C)n1`, the IC50 is below 1000 nM. For `CC(C)n1nc(N)nc1-c1nc2c(s1)CCOc1cc(C(=O)NC3CN(C)C3)ccc1-2` the value was below 1000 nM; for `CO[C@@H]1CCCN(C(=O)c2nc3c(s2)CCOc2cc(-c4cn[nH]c4)ccc2-3)C1`, below 1000 nM; for `Cc1cc(-c2ccc3c(n2)-c2sc(-c4ncnn4-c4ccc(F)cc4F)cc2CCO3)cnc1N1CCN(C)CC1`, below 1000 nM.

The molecule `CC(C)n1ncnc1-c1nc2c(s1)CCOc1ccc(-c3ccc(S(N)(=O)=O)cc3)cc1-2` displayed an IC50 below 1000 nM. `CC(C)n1ncnc1-c1nc2c(s1)CCOc1ccc(C3CN(CC(N)=O)C3)cc1-2` had a concentration for half-maximal inhibition (IC50) below 1000 nM.

Take `CC(C)n1ncnc1-c1nc2c(s1)CCOc1cc(C3CN(Cc4ncco4)C3)ccc1-2`: the 50% inhibitory concentration (IC50) was below 1000 nM. The molecule `Fc1ccc(-n2ncnc2-c2cc3c(s2)-c2nc(N4CC5CC4CN5)ccc2OCC3)c(F)c1` (stereo not drawn) returned an IC50 below 1000 nM. `CC1(C)C(=O)NC(=O)N1c1nc2c(s1)CCOc1cc(C3CCNCC3)ccc1-2` displayed an IC50 below 1000 nM. `Cc1nc(-c2nc3c(s2)CCOc2cc(C4CN(C(=O)[C@H](C)O)C4)ccc2-3)n(C(C)C)n1` displayed an IC50 below 1000 nM.

`COCCN(C)C(=O)c1nc2c(s1)CCOc1cc(-c3cn[nH]c3)ccc1-2` came in with an IC50 below 1000 nM. On to `CC(C)(C(N)=O)n1cc(-c2ccc3c(c2)OCCc2sc(-c4ncnn4CC(F)(F)F)nc2-3)cn1`, for which the IC50 was below 1000 nM. As to `CC(C)n1ncnc1-c1nc2c(s1)CCOc1ccc(-c3cnn(S(=O)(=O)c4ccccc4)c3)cc1-2`, the IC50 is below 1000 nM. To `CN1CCN(CCNc2ccc3c(n2)-c2sc(-c4ncnn4-c4ccc(F)cc4F)cc2CCO3)CC1` belongs below 1000 nM; to `CCn1ccc(-c2ccc3c(c2)OCCc2sc(-c4ncnn4C(C)C)nc2-3)cc1=O`, below 1000 nM.

The record behind these values is the Kinase Knowledgebase extract (Sharma et al. 2016).
